Values quoted from earlier work as cited in patent publication EP4260848A1, “PHARMACEUTICAL COMPOSITION FOR SOLID DOSAGE FORM CONTAINING NILOTINIB AND PROCESS FOR ITS PREPARATION” (Lotus Pharmaceutical Co., Ltd., priority 2022, dated 2023).
Counter-ions that a name gives are not always drawn.

Key:
[1] = not given; remark: listed apart in the source

aqueous solubility (all solid forms (anhydrates, hydrates, solvates))	pKa1 ([1]; determined)	pKa2 ([1]; estimated)	solubility in aqueous solutions (dependence on pH)	Compound
poor aqueous solubility				Cc1cn(-c2cc(NC(=O)c3ccc(C)c(Nc4nccc(-c5cccnc5)n4)c3)cc(C(F)(F)F)c2)cn1 [Nilotinib hydrochloride]
	2.1	5.4	decreases with increasing pH	Cc1cn(-c2cc(NC(=O)c3ccc(C)c(Nc4nccc(-c5cccnc5)n4)c3)cc(C(F)(F)F)c2)cn1 [Nilotinib, 4-methyl-N-[3-(4-methylimidazol-1-yl)-5-(trifluoromethyl)phenyl]-3-[(4-pyridin-3-ylpyrimidin-2-yl)amino]benzamide]
